Results from ChEMBL document CHEMBL4765299 (Eur J Med Chem, 2020).
Activity calls are given as the source filed them. The rule behind the calls is not given here.

Columns and labels:
[1] = test system: K562; assay: Induction of apoptosis in human K562 cells assessed as late apoptotic cells at 5 nM incubated for 48 hrs by AnnexinV-FITC/propidium iodide staining based flow cytometry analysis (reference value: 1.78%); type: functional
[2] = Toxicity in ICR mouse allografted with mouse H22 cells assessed as lung morphological changes at 30 mg/kg, iv administered daily for 21 days by hematoxylin and eosin staining based microscopic analysis; type: organism-based; details: in vivo, 504 h, dose 30 mg/kg/day, time 21 day
[3] = test system: H22; assay: Anti-tumor activity against mouse H22 cells allografted in ICR mice assessed as reduction in tumor weight at 30 mg/kg, iv administered daily for 21 days; type: functional; details: 504 h, time 21 day
[4] = Toxicity in ICR mouse allografted with mouse H22 cells assessed as spleen morphological changes at 30 mg/kg, iv administered daily for 21 days by hematoxylin and eosin staining based microscopic analysis; type: organism-based; details: in vivo, 504 h, dose 30 mg/kg/day, time 21 day
[5] = test system: HUVEC; assay: Anti-angiogenesis activity in HUVEC assessed as inhibition of capillary-like tube formation at 5 nM incubated for 6 hrs by Matrigel-based optical microscopy; type: functional, cell-based; details: Homo sapiens
[6] = test system: HepG2; assay: Antiproliferative against human HepG2 cells assessed as reduction in cell viability measured after 72 hrs by MTT assay; type: functional, cell-based; details: HepG2, 72 h
[7] = Toxicity in ICR mouse allografted with mouse H22 cells assessed as liver morphological changes at 30 mg/kg, iv administered daily for 21 days by hematoxylin and eosin staining based microscopic analysis; type: organism-based; details: in vivo, 504 h, dose 30 mg/kg/day, time 21 day
[8] = test system: K562; assay: Induction of apoptosis in human K562 cells assessed as late apoptotic cells at 10 nM incubated for 48 hrs by AnnexinV-FITC/propidium iodide staining based flow cytometry analysis (reference value: 1.78%); type: functional
[9] = test system: H22; assay: Antiproliferative activity against mouse H22 cells assessed as inhibition of cell growth by MTT assay; type: functional, cell-based
[10] = against A against n against t against i against p against r against o against l against i against f against e against r against a against t against i against v against e against a against c against t against i against v against i against t against y against a against g against a against i against n against s against t against h against u against m against a against n against M against D against A against - against M against B against - against 2 against 3 against 1 against c against e against l against l against s against a against s against s against e against s against s against e against d against a against s against r against e against d against u against c against t against i against o against n against i against n against c against e against l against l against v against i against a against b against i against l against i against t against y against m against e against a against s against u against r against e against d against a against f against t against e against r against 7 against 2 against h against r against s against b against y against M against T against T against a against s against s against a against y against; type: functional, tissue-based, Homo sapiens; details: mda-mb-231
[11] = test system: K562; assay: Induction of mitochondrial membrane potential depolarization in human K562 cells assessed proportion of cells with collapsed MMP at 20 nM measured after 48 hrs by JC-1 staining based flow cytometry (reference value: 1.57%); type: functional
[12] = test system: K562; assay: Induction of cell cycle arrest in human K562 cells assessed as accumulation at G1 phase at 10 nM incubated for 48 hrs by propidium iodide/RNase staining based flow cytometry (reference value: 38.83%); type: functional
[13] = test system: K562; assay: Induction of apoptosis in human K562 cells assessed as early apoptotic cells at 10 nM incubated for 48 hrs by AnnexinV-FITC/propidium iodide staining based flow cytometry analysis (reference value: 1.47%); type: functional
[14] = against A against n against t against i against p against r against o against l against i against f against e against r against a against t against i against v against e against a against c against t against i against v against i against t against y against a against g against a against i against n against s against t against h against u against m against a against n against K against 5 against 6 against 2 against c against e against l against l against s against a against s against s against e against s against s against e against d against a against s against r against e against d against u against c against t against i against o against n against i against n against c against e against l against l against v against i against a against b against i against l against i against t against y against m against e against a against s against u against r against e against d against a against f against t against e against r against 7 against 2 against h against r against s against b against y against M against T against T against a against s against s against a against y against; type: functional, tissue-based, Homo sapiens; details: k562
[15] = test system: K562; assay: Induction of apoptosis in human K562 cells assessed as early apoptotic cells at 5 nM incubated for 48 hrs by AnnexinV-FITC/propidium iodide staining based flow cytometry analysis (reference value: 1.47%); type: functional
[16] = test system: K562; assay: Induction of apoptosis in human K562 cells assessed as late apoptotic cells at 20 nM incubated for 48 hrs by AnnexinV-FITC/propidium iodide staining based flow cytometry analysis (reference value: 1.78%); type: functional
[17] = test system: K562; assay: Induction of cell cycle arrest in human K562 cells assessed as accumulation at G2/M phase at 20 nM incubated for 48 hrs by propidium iodide/RNase staining based flow cytometry (reference value: 7.7%); type: functional
[18] = test system: K562; assay: Induction of cell cycle arrest in human K562 cells assessed as accumulation at S phase at 5 nM incubated for 48 hrs by propidium iodide/RNase staining based flow cytometry (reference value: 53.48%); type: functional
[19] = test system: K562; assay: Induction of mitochondrial membrane potential depolarization in human K562 cells assessed proportion of cells with collapsed MMP at 10 nM measured after 48 hrs by JC-1 staining based flow cytometry (reference value: 1.57%); type: functional
[20] = test system: K562; assay: Induction of apoptosis in human K562 cells incubated for 48 hrs by AnnexinV-FITC/propidium iodide staining based flow cytometry; type: functional, cell-based; details: dose 5-20 nM
[21] = test system: HUVEC; assay: Inhibition of cell migration in HUVEC assessed as wound closure at 20 nM after 24 hrs by scratch wound healing assay (reference value: 76.3%); type: functional, Homo sapiens; parameters: scale not given: the % may be the effect or the level left
[22] = test system: HUVEC; assay: Anti-angiogenesis activity in HUVEC assessed as inhibition of capillary-like tube formation at 10 nM incubated for 6 hrs by Matrigel-based optical microscopy; type: functional, cell-based; details: Homo sapiens
[23] = test system: K562; assay: Induction of mitochondrial membrane potential depolarization in human K562 cells measured after 48 hrs by JC-1 staining based flow cytometry; type: functional, cell-based; details: dose 5-20 nM
[24] = test system: K562; assay: Induction of cell cycle arrest in human K562 cells assessed as accumulation at G1 phase at 5 nM incubated for 48 hrs by propidium iodide/RNase staining based flow cytometry (reference value: 38.83%); type: functional
[25] = test system: K562; assay: Induction of mitochondrial membrane potential depolarization in human K562 cells assessed proportion of cells with intact MMP at 5 nM measured after 48 hrs by JC-1 staining based flow cytometry (reference value: 98.12%); type: functional
[26] = test system: K562; assay: Anti-microtubule activity in human K562 cells assessed as disruption of microtubule network in cytoplasm incubated for 24 hrs by immunofluorescence assay; type: functional, cell-based; details: dose 5-20 nM
[27] = test system: HUVEC; assay: Anti-angiogenesis activity in HUVEC assessed as inhibition of capillary-like tube formation incubated for 6 hrs by Matrigel-based optical microscopy; type: functional, cell-based; details: Homo sapiens, dose 5-20 nM
[28] = species: Sus scrofa; assay: Displacement of [3H]colchicine from porcine brain tubulin at 5 uM incubated for 2 hrs by TopCount scintillation counting method relative to control; type: tissue-based
[29] = test system: K562; assay: Induction of apoptosis in human K562 cells assessed as early apoptotic cells at 20 nM incubated for 48 hrs by AnnexinV-FITC/propidium iodide staining based flow cytometry analysis (reference value: 1.47%); type: functional
[30] = Toxicity in ICR mouse allografted with mouse H22 cells assessed as heart morphological changes at 30 mg/kg, iv administered daily for 21 days by hematoxylin and eosin staining based microscopic analysis; type: organism-based; details: in vivo, 504 h, dose 30 mg/kg/day, time 21 day
[31] = test system: HUVEC; assay: Inhibition of cell migration in HUVEC assessed as decrease in wound closure after 24 hrs by scratch wound healing assay; type: functional, cell-based; details: Homo sapiens, dose 5-20 nM
[32] = test system: H22; assay: Anti-tumor activity against mouse H22 cells allografted in ICR mice assessed as reduction in tumor weight at 15 mg/kg, iv administered daily for 21 days; type: functional; details: 504 h, time 21 day

C=C(c1cc(Cl)nc(NC)c1)c1ccc(OC)c(O)c1
Activity [1]: 3.86%
Activity [2]: Non-Toxic
inhibition in vivo at 30 mg/kg/day [3]: 68.7%
Activity [4]: Non-Toxic
Activity [5]: Active
IC50 [6]: 19 nM
Activity [7]: Non-Toxic
Activity [8]: 11.3%
IC50 [9]: 17 nM
IC50 [10]: 20 nM
Activity [11]: 38.84%
Activity [12]: 38.45%
Activity [13]: 37.25%
IC50 [14]: 10 nM
Activity [15]: 6.6%
Activity [16]: 18.43%
Activity [17]: 15.28%
Activity [18]: 50.66%
Activity [19]: 20.05%
Activity [20]: Dose-dependent effect
Activity [21]: 49.2%
Activity [22]: Active
Activity [23]: Dose-dependent effect
Activity [24]: 39.94%
Activity [25]: 86.4%
Activity [26]: Dose-dependent effect
Activity [27]: Dose-dependent effect
inhibition [28]: 79.3%
Activity [29]: 43.83%
Activity [30]: Non-Toxic
inhibition [31]: Dose-dependent effect
inhibition in vivo at 15 mg/kg/day [32]: 58.7%
